Data: patent US20240246964A1 (Arbutus Biopharma Corporation, priority 2021, published 2024)

Target: human PD-L1 (Homo sapiens (Human), UniProt Q9NZQ7)
Assay: T cell activation luciferase reporter cell culture system (T Cell Activation Assay)
Format: cell-based
Conditions: luciferase reporter assay; PD-L1 aAPC/CHO-K1 cells with PD-1 effector Jurkat T cells

human PD-L1, sequence (Q9NZQ7 19-290): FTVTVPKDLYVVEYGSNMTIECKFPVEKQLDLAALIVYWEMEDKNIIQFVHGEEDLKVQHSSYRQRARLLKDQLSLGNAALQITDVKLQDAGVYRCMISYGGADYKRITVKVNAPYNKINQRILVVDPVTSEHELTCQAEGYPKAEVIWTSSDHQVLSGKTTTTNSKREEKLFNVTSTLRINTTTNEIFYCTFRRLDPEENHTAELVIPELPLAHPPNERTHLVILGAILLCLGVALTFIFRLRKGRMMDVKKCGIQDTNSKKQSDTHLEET

| Structure (SMILES) | EC50 |
| --- | --- |
| COc1cc(-c2nccc(-c3cccc(-c4ccc(CNCCCCC(N)=O)c(OC)n4)c3Cl)c2Cl)ccc1CNCCCCC(N)=O [Example 373, 5-(((6-(3-(2-(4-(((5-Amino-5-oxopentyl)amino)methyl)-3-methoxyphenyl)-3-chloropyridin-4-yl)-2-chlorophenyl)-2-methoxypyridin-3-yl)methyl)amino)pentanamide] | 152 nM |
| COc1cc(-c2nccc(-c3cccc(-c4ccc(CN[C@@H]5CCN(C(C)=O)C5)c(OC)n4)c3Cl)c2Cl)ccc1CN[C@@H]1CCN(C(C)=O)C1 [Example 374, 1-((R)-3-(((6-(3-(2-(4-((((R)-1-Acetylpyrrolidin-3-yl)amino)methyl)-3-methoxyphenyl)-3-chloropyridin-4-yl)-2-chlorophenyl)-2-methoxypyridin-3-yl)methyl)amino)pyrrolidin-1-yl)ethan-1-one] | 44.6 nM |
| COc1nc(-c2cccc(-c3ccnc(-c4cnc5c(CN6CCC(NC(C)=O)CC6)cn(C)c5c4)c3Cl)c2Cl)ccc1CNC[C@@H]1CCC(=O)N1 [Example 377, (S)—N-(1-((6-(3-chloro-4-(2-chloro-3-(6-methoxy-5-((((5-oxopyrrolidin-2-yl)methyl)amino)methyl)pyridin-2-yl)phenyl)pyridin-2-yl)-1-methyl-1H-pyrrolo[3,2-b]pyridin-3-yl)methyl)piperidin-4-yl)acetamide] | 405 nM |
| COc1nc(-c2cccc(-c3ccnc(-c4cnc5c(CN6CC7(CNC(=O)C7)C6)cn(C)c5c4)c3Cl)c2Cl)ccc1CNC[C@@H]1CCC(=O)N1 [Example 378, (S)-2-((6-(3-Chloro-4-(2-chloro-3-(6-methoxy-5-((((5-oxopyrrolidin-2-yl)methyl)amino)methyl)pyridin-2-yl)phenyl)pyridin-2-yl)-1-methyl-1H-pyrrolo[3,2-b]pyridin-3-yl)methyl)-2,6-diazaspiro[3.4]octan-7-one] | 73.8 nM |
| COc1cc(-c2nccc(-c3cccc(-c4ccc(CNC5CCN(C(C)=O)CC5)c(OC)n4)c3Cl)c2Cl)ccc1CNC1CC2(COC2)C1 [Example 379, 1-(4-(((6-(3-(2-(4-(((2-Oxaspiro[3.3]heptan-6-yl)amino)methyl)-3-methoxyphenyl)-3-chloropyridin-4-yl)-2-chlorophenyl)-2-methoxypyridin-3-yl)methyl)amino)piperidin-1-yl)ethan-1-one] | 45.3 nM |
| COc1cc(-c2nccc(-c3cccc(-c4ccc(CNC5CCN(C(=O)C(C)C)CC5)c(OC)n4)c3Cl)c2Cl)ccc1CNC1CCN(C(C)=O)CC1 [Example 382, 1-(4-(((6-(3-(2-(4-(((1-acetylpiperidin-4-yl)amino)methyl)-3-methoxyphenyl)-3-chloropyridin-4-yl)-2-chlorophenyl)-2-methoxypyridin-3-yl)methyl)amino)piperidin-1-yl)-2-methylpropan-1-one] | 15.3 nM |
| COc1nc(-c2cccc(-c3ccnc(-c4cc(OC)c5nc(CN[C@H]6CC[C@H](O)CC6)cn5c4)c3Cl)c2Cl)ccc1CNC[C@@H]1CCC(=O)N1 [Example 384, (S)-5-((((6-(2-Chloro-3-(3-chloro-2-(2-((((1r,4r)-4-hydroxycyclohexyl)amino)methyl)-8-methoxyimidazo[1,2-a]pyridin-6-yl)pyridin-4-yl)phenyl)-2-methoxypyridin-3-yl)methyl)amino)methyl)pyrrolidin-2-one] | 70 nM |
| COc1cc(-c2nccc(-c3cccc(-c4ccc(CN[C@H]5C[C@](C)(O)C5)c(OC)n4)c3Cl)c2Cl)ccc1CN[C@H]1C[C@](C)(O)C1 [Example 385, (1r,3r)-3-(((6-(2-Chloro-3-(3-chloro-2-(4-((((1r,3r)-3-hydroxy-3-methylcyclobutyl)amino)methyl)-3-methoxyphenyl)pyridin-4-yl)phenyl)-2-methoxypyridin-3-yl)methyl)amino)-1-methylcyclobutan-1-ol] | 17.8 nM |
| COc1cc(-c2nccc(-c3cccc(-c4ccc(CN5CC6(COC6)C5)c(OC)n4)c3Cl)c2Cl)ccc1CN1CC2(COC2)C1 [Example 387, 6-((6-(3-(2-(4-((2-Oxa-6-azaspiro[3.3]heptan-6-yl)methyl)-3-methoxyphenyl)-3-chloropyridin-4-yl)-2-chlorophenyl)-2-methoxypyridin-3-yl)methyl)-2-oxa-6-azaspiro[3.3]heptane] | 8.22 nM |
| COc1cc(-c2nccc(-c3cccc(-c4ccc(CN5CC[C@H](C(=O)O)C5)c(OC)n4)c3Cl)c2Cl)ccc1CNC1CCN(C(C)=O)CC1 [Example 388, (S)-1-((6-(3-(2-(4-(((1-acetylpiperidin-4-yl)amino)methyl)-3-methoxyphenyl)-3-chloropyridin-4-yl)-2-chlorophenyl)-2-methoxypyridin-3-yl)methyl)pyrrolidine-3-carboxylic acid] | 38.5 nM |
| COc1cc(-c2nccc(-c3cccc(-c4ccc(CNC5CCN(C(C)=O)CC5)c(OC)n4)c3Cl)c2Cl)ccc1CNCCC(=O)O [Example 390, 3-((4-(4-(3-(5-(((1-acetylpiperidin-4-yl)amino)methyl)-6-methoxypyridin-2-yl)-2-chlorophenyl)-3-chloropyridin-2-yl)-2-methoxybenzyl)amino)propanoic acid] | 56.6 nM |
| COc1cc(-c2nccc(-c3cccc(-c4ccc(CNC5CCOCC5)c(OC)n4)c3Cl)c2Cl)ccc1CNC1CCN(C(C)=O)CC1 [Example 391, 1-(4-((4-(3-chloro-4-(2-chloro-3-(6-methoxy-5-(((tetrahydro-2H-pyran-4-yl)amino)methyl)pyridin-2-yl)phenyl)pyridin-2-yl)-2-methoxybenzyl)amino)piperidin-1-yl)ethan-1-one] | 18 nM |
| COc1cc(-c2nccc(-c3cccc(-c4ccc(CNC5CCN(C(C)=O)CC5)c(OC)n4)c3Cl)c2Cl)ccc1CNC1CCOCC1 [Example 392, 1-(4-(((6-(2-chloro-3-(3-chloro-2-(3-methoxy-4-(((tetrahydro-2H-pyran-4-yl)amino)methyl)phenyl)pyridin-4-yl)phenyl)-2-methoxypyridin-3-yl)methyl)amino)piperidin-1-yl)ethan-1-one] | 17.6 nM |
| COc1cc(-c2nccc(-c3cccc(-c4ccc([C@H](C)N)c(OC)n4)c3Cl)c2Cl)ccc1[C@H](C)N [Example 393, (S)-1-(6-(3-(2-(4-((S)-1-Aminoethyl)-3-methoxyphenyl)-3-chloropyridin-4-yl)-2-chlorophenyl)-2-methoxypyridin-3-yl)ethan-1-amine] | 416 nM |
| COc1nc(-c2cccc(-c3ccnc(-c4ccc(CNC5CCN(C(C)=O)CC5)c(OC(F)F)c4)c3Cl)c2Cl)ccc1CNC1CCN(C(C)=O)CC1 [Example 394, 1-(4-(((6-(3-(2-(4-(((1-Acetylpiperidin-4-yl)amino)methyl)-3-(difluoromethoxy)phenyl)-3-chloropyridin-4-yl)-2-chlorophenyl)-2-methoxypyridin-3-yl)methyl)amino)piperidin-1-yl)ethan-1-one] | 22.2 nM |
| CNCc1ccc(-c2nccc(-c3cccc(-c4ccc(CNC)c(OC)n4)c3C)c2Cl)cc1OC [Example 395, 1-(6-(3-(3-Chloro-2-(3-methoxy-4-((methylamino)methyl)phenyl)pyridin-4-yl)-2-methylphenyl)-2-methoxypyridin-3-yl)-N-methylmethanamine] | 81.8 nM |
| COc1cc(-c2nccc(-c3cccc(-c4ccc(CN5CC6(CCC(=O)N6)C5)c(OC)n4)c3Cl)c2Cl)ccc1CN1CCC(NC(C)=O)CC1 [Example 401, N-(1-(4-(3-Chloro-4-(2-chloro-3-(6-methoxy-5-((6-oxo-2,5-diazaspiro[3.4]-octan-2-yl)methyl)pyridin-2-yl)phenyl)pyridin-2-yl)-2-methoxybenzyl)piperidin-4-yl)acetamide] | 20.6 nM |
| COc1cc(-c2nccc(-c3cccc(-c4ccc(CN5CC6(C5)CN(C(C)=O)C6)c(OC)n4)c3Cl)c2Cl)ccc1CN1CCC(NC(C)=O)CC1 [Example 402, N-(1-(4-(4-(3-(5-((6-acetyl-2,6-diazaspiro[3.3]heptan-2-yl)methyl)-6-methoxypyridin-2-yl)-2-chlorophenyl)-3-chloropyridin-2-yl)-2-methoxybenzyl)piperidin-4-yl)acetamide] | 44.6 nM |
| COc1cc(-c2nccc(-c3cccc(-c4ccc(CNC[C@@H]5CCC(=O)N5)c(OC)n4)c3Cl)c2Cl)ccc1CN1CCC(NC(C)=O)CC1 [Example 403, (S)—N-(1-(4-(3-Chloro-4-(2-chloro-3-(6-methoxy-5-((((5-oxopyrrolidin-2-yl)methyl)amino)methyl)pyridin-2-yl)phenyl)pyridin-2-yl)-2-methoxybenzyl)piperidin-4-yl)acetamide] | 18.9 nM |
| COc1cc(-c2nccc(-c3cccc(-c4ccc(CNC5CCN(C(C)=O)CC5)c(OC)n4)c3Cl)c2C#N)ccc1CNC1CCN(C(C)=O)CC1 [Example 404, 2-(4-(((1-Acetylpiperidin-4-yl)amino)methyl)-3-methoxyphenyl)-4-(3-(5-(((1-acetylpiperidin-4-yl)amino)methyl)-6-methoxypyridin-2-yl)-2-chlorophenyl)nicotinonitrile] | 23.9 nM |
| COc1cc(-c2nccc(-c3cccc(-c4ccc(CNC5CCN(C(C)=O)CC5)c(OC)n4)c3Cl)c2Cl)ccc1CN1CCC(C)(N)CC1 [Example 406, 1-(4-(((6-(3-(2-(4-((4-Amino-4-methylpiperidin-1-yl)methyl)-3-methoxyphenyl)-3-chloropyridin-4-yl)-2-chlorophenyl)-2-methoxypyridin-3-yl)-methyl)-amino)piperidin-1-yl)ethan-1-one] | 62.7 nM |
| COc1cc(-c2nccc(-c3cccc(-c4ccc(CNC5CCN(C(C)=O)CC5)c(OC)n4)c3Cl)c2Cl)ccc1CNC[C@H]1CNC(=O)C1 [Example 407, (S)-4-(((4-(4-(3-(5-(((1-Acetylpiperidin-4-yl)amino)methyl)-6-methoxypyridin-2-yl)-2-chlorophenyl)-3-chloropyridin-2-yl)-2-methoxybenzyl)amino)methyl)pyrrolidin-2-one] | 20 nM |
| COc1cc(-c2nccc(-c3cccc(-c4ccc(CN5CC6(CNC(=O)C6)C5)c(OC)n4)c3C)c2Cl)ccc1CN1CC2(CNC(=O)C2)C1 [Example 408, 2-((6-(3-(3-chloro-2-(3-methoxy-4-((7-oxo-2,6-diazaspiro[3.4]octan-2-yl)methyl)phenyl)pyridin-4-yl)-2-methylphenyl)-2-methoxypyridin-3-yl)methyl)-2,6-diazaspiro[3.4]octan-7-one] | 39.4 nM |
